# Data as given in patent US6521611B2 (Eli Lilly and Company, priority 1996, dated 2003).
# Bridge positions count the residues as written; N and C are the ends. Square brackets hold non-standard residues; d marks the D form. Peptide text beside a SMILES is read from it. Orn = NCCC[C@H](N)C(=O)O; Mpa = O=C(O)CCS
# Target: T1, human vasopressin V1a receptor (Homo sapiens, UniProt P37288)
# T1 construct: expressed in transfected cells; host or cells: CHO (hV1a cell line), membrane preparation
# Test: human vasopressin V1a receptor binding, [3H]PMP-AVP, hV1a (CHO) cell membranes
# Details: [3H]PMP-AVP 0.2 nM, read-out: BINDING AFFINITY (IC50 (nM))
# Description: The human vasopressin V1a receptor has been cloned and expressed (Thibonnier et al., Journal of Biological Chemistry, 269, 3304-3310 (1994)). The nucleotide sequence has been deposited in the EMBL Databank under accession number Z11690.
# The hV1a cell line was grown in alpha-MEM (alpha modification of Minimum essential medium Eagle, Sigma, St. Louis, Mo., USA) with 10% fetal bovine serum and 250 μg/ml G418 (Gibco, Grand Island, N.Y., USA). To prepare membranes, hV1a cells were grown to confluency in 20 roller bottles. Cells were dissociated with enzyme-free cell dissociation medium (Specialty Media, Lavallette, N.J., USA) and centrifuged at 2500 rpm for 10 minutes. The pellet was resuspended in 40 mL of Tris-HCl (tris[hydroxymethyl]aminomethane hydrochloride) buffer (50 mM, pH 7.4) and homogenized for 1 minute with a Tekmar Tissumizer (Cincinnatti, Ohio USA). The suspension was centrifuged at 40,000×g for 10 minutes. The pellet was resuspended and centrifuged as above. The final pellet was suspended in 80 mL of Tris 7.4 buffer and stored in 4 mL aliquots at −80° C. For assay, aliquots were resuspended in assay buffer and diluted to 125 μg protein per mL. Protein concentration was determined by BCA assay (Pierce, Rockford, Ill., USA).
# Assay buffer was prepared by adjusting the pH of a solution of 50 mMol HEPES (N-2-Hydroxyethylpiperazine-N′-2-ethanesulfonic acid, Sigma, St. Louis, Mo., USA), 5 mMol MgCl2, and 1 mMol dithiothreitol pH 7.4 with NaOH, after which 40 μg/mL bacitracin and 10 μg/mL aprotinin were added. The radioligand for binding assays was [^3H]PMP-AVP (Manning vasopressin antagonist, 56 Ci/mMol, DuPont NEN, Boston, MA, USA). The order of additions was 195 μL assay buffer, 200 μL hV1a membranes (25 μg protein) in assay buffer, 5 μL of test agent in dimethylsulfoxide (DMSO) or DMSO alone, and 100 μL [^3H]PMP-AVP in assay buffer (final concentration 0.2 nM). Incubations were for one hour at room temperature. […] The filters were washed with ice-cold 50 mM Tris-HCl (pH 7.7 at 25° C.) and the filter circles were placed in scintillation vials, to which were then added 5 mL Ready Protein Plus scintillation fluid, and counted in a liquid scintillation counter. […] IC50 values were calculated by nonlinear least-squares curve-fitting to a 4-parameter logistic model.
# T1 sequence (P37288 whole entry): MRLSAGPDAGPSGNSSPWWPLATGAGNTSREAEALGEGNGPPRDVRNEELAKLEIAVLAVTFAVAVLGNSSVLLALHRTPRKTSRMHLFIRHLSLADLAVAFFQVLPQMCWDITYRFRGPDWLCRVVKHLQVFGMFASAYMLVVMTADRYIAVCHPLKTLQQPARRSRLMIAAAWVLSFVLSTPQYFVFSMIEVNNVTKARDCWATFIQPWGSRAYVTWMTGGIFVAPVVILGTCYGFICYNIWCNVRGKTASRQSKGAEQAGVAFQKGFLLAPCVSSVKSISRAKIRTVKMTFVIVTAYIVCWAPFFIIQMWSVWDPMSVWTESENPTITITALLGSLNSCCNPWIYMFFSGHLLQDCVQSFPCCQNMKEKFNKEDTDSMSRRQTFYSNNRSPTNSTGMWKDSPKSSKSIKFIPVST
row,Structure (SMILES),IC50 [nM]
1,"COC(=O)C(N1C(=O)[C@H](N2C(=O)OC[C@H]2c2ccccc2)[C@@H]1C=Cc1ccco1)C(O)(C(=O)c1ccccc1)c1ccccc1 (mixture of isomers) [Example 39, Methyl 2-(R,S)-[1-hydroxy-1,2-diphenyl-2-oxo-ethyl]-2-[3(R)-(4(R)-phenyloxazolidin-2-on-3-yl)-4(S)-(1-(fur-2-yl)-ethylen-2-yl)-azetidin-2-on-1-yl]acetate]",13
2,"CC(C)(C)C(=O)C(C(=O)OCc1cccc(Cl)c1)N1C(=O)C(N2C(=O)OCC2c2ccccc2)C1C=Cc1ccccc1 (mixture of isomers) [Example 46, 3-Chlorobenzyl 2(R,S)-[2,2-dimethylpropanoyl]-2-[3(S)-(4(S)-phenyloxazolidin-2-on-3-yl)-4(R)-(2-styryl)-azetidin-2-on-1-yl]acetate]",11
3,"CC(C)(C)OC(=O)C(C(=O)Cc1cccc(C(F)(F)F)c1)N1C(=O)C(N2C(=O)OCC2c2ccccc2)C1C=Cc1ccccc1 (mixture of isomers) [Example 50, tert-Butyl 2(R,S)-[3-(trifluoro)phenylacetyl]-2-[3(S)-(4(S)-phenyloxazolidin-2-on-3-yl)-4(R)-(2-styryl)-azetidin-2-on-1-yl]acetate]",64
4,"CC(C)(C)C[C@@H](C(=O)OCc1ccccc1)N1C(=O)[C@H](N2C(=O)OC[C@H]2c2ccccc2)[C@@H]1C=Cc1ccco1 [Example 27, Benzyl 2(S)-(2,2-dimethyl)propyl-2-[3(R)-(4(R)-phenyloxazolidin-2-on-3-yl)-4(S)-(1-(fur-2-yl)-ethylen-2-yl)-azetidin-2-on-1-yl]acetate]",28
5,"CCC1(C(C(=O)NCc2ccccc2)N2C(=O)C(N3C(=O)OCC3c3ccccc3)C2C=Cc2ccccc2)OCCO1 [Example 31, N-[benzyl]-2-[(1,1-ethyleneketal)propionyl]-2-[3(S)-(4(S)-phenyloxazolidin-2-on-3-yl)-4(R)-(2-styryl)-azetidin-2-on-1-yl]acetamide]",23
6,"CC(C)C[C@@H](C(=O)N1CCC(CCN2CCCCC2)CC1)N1C(=O)[C@@H](N2C(=O)OC[C@@H]2c2ccccc2)[C@H]1/C=C/c1ccccc1 [Example 34, 1-{2-(S)-isobutyl-2-[3(S)-(4(S)-phenyloxazolidin-2-on-3-yl)-4(R)-(2-styryl)-azetidin-2-on-1-yl]acetyl}-4-(2-(piperidin-1-yl)-ethyl)piperidine]",78
7,"CC(C)(C)C(O)C(C(=O)N1CCC(CCN2CCCCC2)CC1)N1C(=O)[C@@H](N2C(=O)OC[C@@H]2c2ccccc2)[C@H]1C=Cc1ccccc1 (stereo partly drawn) [Example 40, 1-{2-(R,S)-[1-hydroxy-2,2-dimethylpropyl]-2-[3(S)-(4(S)-phenyloxazolidin-2-on-3-yl)-4(R)-(2-styryl)-azetidin-2-on-1-yl]acetyl}-4-(2-(piperidin-1-yl)-ethyl)piperidine]",40
8,"CC(C)(C)C(=O)[C@H](C(=O)OCc1ccccc1)N1C(=O)[C@@H](N2C(=O)OC[C@@H]2c2ccccc2)[C@H]1C=Cc1ccco1 [Example 54A, Benzyl 2-(R)-[2,2-dimethylpropanoyl]-2-[3(S)-(4(S)-phenyloxazolidin-2-on-3-yl)-4(R)-(1-(fur-2-yl)ethylen-2-yl)-azetidin-2-on-1-yl]acetate]",2
9,"CC(C)(C)C(=O)[C@@H](C(=O)OCc1ccccc1)N1C(=O)[C@@H](N2C(=O)OC[C@@H]2c2ccccc2)[C@H]1C=Cc1ccco1 [Example 54B, Benzyl 2-(S)-[2,2-dimethylpropanoyl]-2-[3(S)-(4(S)-phenyloxazolidin-2-on-3-yl)-4(R)-(1-(fur-2-yl)ethylen-2-yl)-azetidin-2-on-1-yl]acetate]",9
10,CCC1(C(C(=O)NCc2cccc(C(F)(F)F)c2)N2C(=O)[C@@H](N3C(=O)OC[C@@H]3c3ccccc3)[C@H]2/C=C/c2ccccc2)OCCO1 (stereo partly drawn) [Example 67],5
11,CCC1(C(C(=O)N2CCN(CCc3ccccc3)CC2)N2C(=O)[C@@H](N3C(=O)OC[C@@H]3c3ccccc3)[C@H]2/C=C/c2ccccc2)OCCO1 (stereo partly drawn) [Example 78],16
12,CC(C)C[C@@H](C(=O)NCCCN1CCN(C)CC1)N1C(=O)[C@@H](N2C(=O)OC[C@@H]2c2ccccc2)[C@H]1/C=C/c1ccccc1 [Example 97],42
13,CC(C)C[C@@H](C(=O)NCc1cccc(Cl)c1)N1C(=O)[C@@H](N2C(=O)OC[C@@H]2c2ccccc2)[C@H]1/C=C/c1ccccc1 [Example 109],40
14,Cc1cccc(CNC(=O)[C@H](CC(C)C)N2C(=O)[C@@H](N3C(=O)OC[C@@H]3c3ccccc3)[C@H]2/C=C/c2ccccc2)c1 [Example 112],25
15,CC(C)C[C@@H](C(=O)NCc1cccc(C(F)(F)F)c1)N1C(=O)[C@@H](N2C(=O)OC[C@@H]2c2ccccc2)[C@H]1/C=C/c1ccccc1 [Example 113],41

# Tested on: golden hamsters
# Test: vasopressin-induced flank marking in golden hamsters
# Assay type: in vivo, golden hamsters (Mesocricetus auratus)
# Details: microinjection into anterior hypothalamus as cocktail with 1 μM vasopressin; scored 10 minutes
# Description: In golden hamsters, a particular stereotypy, flank marking behavior, can be induced by micro-injections of vasopressin ([…], 1-100 μM) into the anterior hypothalamus (Ferris, et al., Science, 224, 521-523 (1984); Albers and Ferris, Regulatory Peptides, 12, 257-260 (1985); Ferris et al., European Journal of Pharmacology, 154, 153-159 (1988)). Following the releasing stimulus, the behavior is initiated by grooming, licking and combing of the large sebaceous glands on the dorsolateral flanks. Bouts of flank gland grooming may be so intense that the flank region is left matted and soaked in saliva. After grooming, the hamsters display flank marking behavior, a type of scent marking involved in olfactory communication (Johnston, Physio. Behav., 51, 437-448 (1985); Ferris, et al., Physio. Behav., 40, 661-664 (1987)), by arching the back and rubbing the flank glands vigorously against any vertical surface.
# All animals were adult male golden hamsters (Mesocricetus auratus) weighing approximately 160 gm. The animals underwent stereotaxic surgery, and were allowed to recover before behavioral testing. […]
# The hamsters were microinjected with 1 μM vasopressin in a volume of […]. […] Animals were scored for flank marking for a period of 10 minutes in a clean cage.
row,Structure (SMILES),inhibition of vasopressin-induced flank marking
1,"CC(C)(C)C(=O)C(C(=O)OCc1ccccc1)N1C(=O)C(N2C(=O)OCC2c2ccccc2)C1C=Cc1ccccc1 (mixture of isomers) [Example 42, Benzyl 2-(R,S)-[2,2-dimethylpropanoyl]-2-[3(S)-(4(S)-phenyloxazolidin-2-on-3-yl)-4(R)-(2-styryl)azetidin-2-on-1-yl]acetate]",inhibited vasopressin-induced flank marking in a dose dependent manner

# Tested on: not given
# Test: not given
# Details: not given
row,Structure (SMILES),melting point [°C]
1,"CC(C)(C)OC(=O)C(C(=O)Cc1cccc(C(F)(F)F)c1)N1C(=O)C(N2C(=O)OCC2c2ccccc2)C1C=Cc1ccccc1 (mixture of isomers) [Example 50, tert-Butyl 2(R,S)-[3-(trifluoro)phenylacetyl]-2-[3(S)-(4(S)-phenyloxazolidin-2-on-3-yl)-4(R)-(2-styryl)-azetidin-2-on-1-yl]acetate]",158 to 160
2,"CC(C)(C)C[C@@H](C(=O)OCc1ccccc1)N1C(=O)[C@H](N2C(=O)OC[C@H]2c2ccccc2)[C@@H]1C=Cc1ccco1 [Example 27, Benzyl 2(S)-(2,2-dimethyl)propyl-2-[3(R)-(4(R)-phenyloxazolidin-2-on-3-yl)-4(S)-(1-(fur-2-yl)-ethylen-2-yl)-azetidin-2-on-1-yl]acetate]",180
3,"CC(C)C[C@@H](C(=O)OCc1ccccc1)N1C(=O)[C@@H](N2C(=O)OC[C@@H]2c2ccccc2)[C@H]1CCc1ccccc1 [Example 28, Benzyl 2-(S)-isobutyl-2-[3(S)-(4(S)-phenyloxazolidin-2-on-3-yl)-4(R)-(2-(phenyl)-ethyl)-azetidin-2-on-1-yl]acetate]",138 to 140
4,"CC1(C(C(=O)NCc2ccccc2)N2C(=O)C(N3C(=O)OCC3c3ccccc3)C2C=Cc2ccccc2)OCCO1 [Example 30, N-[Benzyl]-2-[(1,1-ethyleneketal)acetyl]-2-[3(S)-(4(S)-phenyloxazolidin-2-on-3-yl)-4(R)-(2-styryl)-azetidin-2-on-1-yl)acetamide]",150 to 152

# Tested on: preterm contractions
# Test: not given
# Details: studied clinically (Goodwin, et al., 1994); cited from earlier work
row,Structure (SMILES),inhibition of preterm contractions versus placebo
1,CCOc1ccc(C[C@H]2NC(=O)CCSSC[C@@H](C(=O)N3CCC[C@H]3C(=O)N[C@@H](CCCN)C(=O)NCC(N)=O)NC(=O)[C@H](CC(N)=O)NC(=O)[C@H]([C@@H](C)O)NC(=O)[C@H]([C@@H](C)CC)NC2=O)cc1 [atosiban] ([Mpa][dY](Et)ITNCP[Orn]G-NH2; disulfide 1-6),more significant inhibition of preterm contractions than did placebo
